{"source": "paper PMC9519446", "about": "“Discovery of an Orally Active Benzoxaborole Prodrug Effective in the Treatment of Chagas Disease in Non-human Primates” (Nature microbiology, 2022)", "test_system": "recombinant T. cruzi proteins", "assay": "Luminex-based multiplex serological assay (IgG to recombinant T. cruzi proteins)", "type": "in vivo, rhesus macaques (Macaca mulatta)", "settings": "treated animal T19", "procedure": "Luminex-based multiplex serological assays were performed as previously described, [17]. For a number of smaller proteins, fusions of up to 2 individual genes are employed for some target proteins in order to expand the array of antibodies being detected while controlling costs and complexity of the assay. (TritrypDb.org identifiers: Tc1= fusion of TcBrA4_0116860 and TcYC6_0028190; Tc2= fusion of TcBrA4_0088420 and TcBrA4_0101960; Tc3 = fusion of TcBrA4_0104680 and TcBrA4_0101980; Tc4= fusion of TcBrA4_0028480 and TcBrA4_0088260; Tc5 = fusion of TcYC6_0100010 and TcBrA4_0074300; Tc7 = fusion of TcYC6_0083710 and TcBrA4_0130080; Tc8 = TcYC6_0037170; Tc11 = TcYC6_0124160; Tc17 = fusion of TcBrA4_0028230 and TcBrA4_0029760; Kn107 = TcCLB.508355.250; G10 = TcCLB.504199.20). Macaque antibody binding to individual beads in the Multiplex assays was detected with donkey anti-human IgG (H+L) conjugated to phycoerythrin (Jackson ImmunoResearch) in a 1:200 dilution.", "data": [{"smiles": "Cc1c(C(=O)N[C@H](C(=O)OCC2CCOCC2)C(C)C)ccc2c1B(O)OC2", "note": "[AN15368]", "values": [{"measurement": "IgG response to G10 (36)", "setting": "2018-01-23", "result": 14.8}, {"measurement": "IgG response to Kn107 (20)", "setting": "2018-01-23", "result": 214.8}, {"measurement": "IgG response to Tc1 (3)", "setting": "2018-01-23", "result": 4009.3}, {"measurement": "IgG response to Tc2 (6)", "setting": "2018-01-23", "result": 590.8}, {"measurement": "IgG response to Tc3 (11)", "setting": "2018-01-23", "result": -15.0}, {"measurement": "IgG response to Tc4 (16)", "setting": "2018-01-23", "result": 80.0}, {"measurement": "IgG response to Tc5 (22)", "setting": "2018-01-23", "result": 19.8}, {"measurement": "IgG response to Tc7 (27)", "setting": "2018-01-23", "result": 2161.8}, {"measurement": "IgG response to Tc8 (31)", "setting": "2018-01-23", "result": 13766.8}, {"measurement": "IgG response to Tc11 (35)", "setting": "2018-01-23", "result": 289.0}, {"measurement": "IgG response to Tc17 (51)", "setting": "2018-01-23", "result": 2186.0}, {"measurement": "IgG response to Tc lysate (50)", "setting": "2018-01-23", "result": 2937.3}, {"measurement": "IgG response to G10 (36)", "setting": "2018-02-27", "result": 83.0}, {"measurement": "IgG response to Kn107 (20)", "setting": "2018-02-27", "result": -14.5}, {"measurement": "IgG response to Tc1 (3)", "setting": "2018-02-27", "result": 2826.0}, {"measurement": "IgG response to Tc2 (6)", "setting": "2018-02-27", "result": 413.5}, {"measurement": "IgG response to Tc3 (11)", "setting": "2018-02-27", "result": 17.5}, {"measurement": "IgG response to Tc4 (16)", "setting": "2018-02-27", "result": 111.0}, {"measurement": "IgG response to Tc5 (22)", "setting": "2018-02-27", "result": 6.8}, {"measurement": "IgG response to Tc7 (27)", "setting": "2018-02-27", "result": 1831.8}, {"measurement": "IgG response to Tc8 (31)", "setting": "2018-02-27", "result": 11208.3}, {"measurement": "IgG response to Tc11 (35)", "setting": "2018-02-27", "result": 163.8}, {"measurement": "IgG response to Tc17 (51)", "setting": "2018-02-27", "result": 1943.5}, {"measurement": "IgG response to Tc lysate (50)", "setting": "2018-02-27", "result": 1833.0}, {"measurement": "IgG response to G10 (36)", "setting": "2018-03-28", "result": -25.5}, {"measurement": "IgG response to Kn107 (20)", "setting": "2018-03-28", "result": 5.5}, {"measurement": "IgG response to Tc1 (3)", "setting": "2018-03-28", "result": 1762.3}, {"measurement": "IgG response to Tc2 (6)", "setting": "2018-03-28", "result": 386.3}, {"measurement": "IgG response to Tc3 (11)", "setting": "2018-03-28", "result": 60.0}, {"measurement": "IgG response to Tc4 (16)", "setting": "2018-03-28", "result": 6.0}, {"measurement": "IgG response to Tc5 (22)", "setting": "2018-03-28", "result": 32.5}, {"measurement": "IgG response to Tc7 (27)", "setting": "2018-03-28", "result": 1344.3}, {"measurement": "IgG response to Tc8 (31)", "setting": "2018-03-28", "result": 8779.3}, {"measurement": "IgG response to Tc11 (35)", "setting": "2018-03-28", "result": 66.5}, {"measurement": "IgG response to Tc17 (51)", "setting": "2018-03-28", "result": 1378.0}, {"measurement": "IgG response to Tc lysate (50)", "setting": "2018-03-28", "result": 1572.0}, {"measurement": "IgG response to G10 (36)", "setting": "2019-02-19", "result": -6.3}, {"measurement": "IgG response to Kn107 (20)", "setting": "2019-02-19", "result": 9.8}, {"measurement": "IgG response to Tc1 (3)", "setting": "2019-02-19", "result": 1092.5}, {"measurement": "IgG response to Tc2 (6)", "setting": "2019-02-19", "result": 189.8}, {"measurement": "IgG response to Tc3 (11)", "setting": "2019-02-19", "result": 63.8}, {"measurement": "IgG response to Tc4 (16)", "setting": "2019-02-19", "result": 9.0}, {"measurement": "IgG response to Tc5 (22)", "setting": "2019-02-19", "result": 22.0}, {"measurement": "IgG response to Tc7 (27)", "setting": "2019-02-19", "result": 910.3}, {"measurement": "IgG response to Tc8 (31)", "setting": "2019-02-19", "result": 5960.0}, {"measurement": "IgG response to Tc11 (35)", "setting": "2019-02-19", "result": 51.0}, {"measurement": "IgG response to Tc17 (51)", "setting": "2019-02-19", "result": 927.0}, {"measurement": "IgG response to Tc lysate (50)", "setting": "2019-02-19", "result": 1211.8}, {"measurement": "IgG response to G10 (36)", "setting": "2020-06-18", "result": -46.3}, {"measurement": "IgG response to Kn107 (20)", "setting": "2020-06-18", "result": 15.0}, {"measurement": "IgG response to Tc1 (3)", "setting": "2020-06-18", "result": 454.3}, {"measurement": "IgG response to Tc2 (6)", "setting": "2020-06-18", "result": 7.3}, {"measurement": "IgG response to Tc3 (11)", "setting": "2020-06-18", "result": 76.3}, {"measurement": "IgG response to Tc4 (16)", "setting": "2020-06-18", "result": 6.0}, {"measurement": "IgG response to Tc5 (22)", "setting": "2020-06-18", "result": 2.0}, {"measurement": "IgG response to Tc7 (27)", "setting": "2020-06-18", "result": 373.3}, {"measurement": "IgG response to Tc8 (31)", "setting": "2020-06-18", "result": 3159.8}, {"measurement": "IgG response to Tc11 (35)", "setting": "2020-06-18", "result": 48.5}, {"measurement": "IgG response to Tc17 (51)", "setting": "2020-06-18", "result": 793.0}, {"measurement": "IgG response to Tc lysate (50)", "setting": "2020-06-18", "result": 640.8}, {"measurement": "IgG response to G10 (36)", "setting": "2021-05-20", "result": 11.0}, {"measurement": "IgG response to Kn107 (20)", "setting": "2021-05-20", "result": 65.5}, {"measurement": "IgG response to Tc1 (3)", "setting": "2021-05-20", "result": 42.3}, {"measurement": "IgG response to Tc2 (6)", "setting": "2021-05-20", "result": -7.8}, {"measurement": "IgG response to Tc3 (11)", "setting": "2021-05-20", "result": 3.8}, {"measurement": "IgG response to Tc4 (16)", "setting": "2021-05-20", "result": -20.3}, {"measurement": "IgG response to Tc5 (22)", "setting": "2021-05-20", "result": 1.5}, {"measurement": "IgG response to Tc7 (27)", "setting": "2021-05-20", "result": 293.3}, {"measurement": "IgG response to Tc8 (31)", "setting": "2021-05-20", "result": 1814.0}, {"measurement": "IgG response to Tc11 (35)", "setting": "2021-05-20", "result": 133.3}, {"measurement": "IgG response to Tc17 (51)", "setting": "2021-05-20", "result": 399.3}, {"measurement": "IgG response to Tc lysate (50)", "setting": "2021-05-20", "result": 384.5}]}]}
